# Experiments:
# [1] = tested on: double-stranded DNA of the region from −77 to −70 containing the AP-1 binding site of the human matrix metalloproteinase-9 promoter; assay: Gel shift assay (EMSA), AP-1 site oligonucleotide; settings: 10 μM polyamide, 0.6 μM fluorescently labeled double-stranded DNA, 37° C., 1 hour
# Method: (§1) Oligonucleotides were synthesized and annealed to form 2 kinds of double-stranded oligonucleotides corresponding to the promoter base pairs against HMMP9AP1 and HMMP9NFκβ. One single-stranded oligonucleotide was labeled with FITC and hybridized with another single-stranded oligonucleotide as a complementary sequence to prepare double-stranded DNA. Specifically, nucleotides having the following nucleotide sequences were prepared: HMMP9AP1 (match) sense primer (5′[…]) (SEQ ID NO: 8) corresponding to the region from −77 to −70 containing the AP-1 binding site; this sequence plus 2-base mutation, i.e., HMMP9AP1 oligo DNA (mismatch 1) sense primer (5′[…]) (SEQ ID NO: 9); HMMP9NFκβ (match) sense primer (5′[…]) (SEQ ID NO: 10) containing the region from −605 to −599 containing the NFκβ binding site; this sequence plus 2-base mutation, i.e., HMMP9NFκβ (mismatch 1) sense primer (5′[…]) (SEQ ID NO: 11); and antisense primers respectively complementary to these 4 primers. […] The obtained complexes were electrophoresed on a 20% polyacrylamide gel, and the mobilities of the fluorescently labeled double-stranded oligonucleotides were analyzed with a fluorescent image analyzer (FUJIFILM, LAS-4000, Tokyo, Japan). […]
# [2] = tested on: double-stranded DNA of the region from −605 to −599 containing the NFκβ binding site of the human matrix metalloproteinase-9 promoter; assay: Gel shift assay (EMSA), NFκβ site oligonucleotide; settings: 10 μM polyamide, 0.6 μM fluorescently labeled double-stranded DNA, 37° C., 1 hour
# Method: as §1
# [3] = tested on: binding of NF-κβ protein with the MMP-9 promoter region; assay: Immunoprecipitation/PCR assay with anti-NF-κβ antibodies; type: cell-based, human; settings: 1 μM, 4 hours, MDA-MB-231 and HeLa cells
# Method: Immunoprecipitation/PCR assay with anti-NF-κβ antibodies was conducted using MDA-MB-231 and HeLa cells. The MDA-MB-231 and HeLa cells were separately inoculated to a 100-mm culture dish and cultured for 24 hours in […] of Dulbecco's modified Eagle medium (DMEM) containing 10% fetal bovine serum (Invitrogen) and then with 1 μM match polyamide HMMP9NFκβ or 1 μM mismatch polyamide (shown in FIG. 26) for 4 hours. Protein-DNA complexes were fixed in 1% formaldehyde, reacted with specific NF-κB p65 antibodies and nonspecific rabbit immunoglobulin G antibodies, and collected by precipitation as antibody-protein-DNA complexes using Protein A beads. From the protein-DNA complexes, DNA was separated through reaction with 5 M NaCl and subjected to amplification reaction using PCR primers flanking the NFκβ binding sequence of MMP9. The NFκβ-bound DNA of an MMP9 gene promoter region is identified as a PCR product.
# An MMP-9 promoter region from −657 to −484 was amplified using PCR primers (forward: 5′-TGTCCCTTTACTGCCCTGA-3′ (SEQ ID NO: 20) and reverse: 5′-[…]-3′ (SEQ ID NO: 21)) (Schwingshackl A, Duszyk M, Brown N, Moqbel R. HμMan eosinophils release matrix metalloproteinase-9 on stimulation with TNF-α. J Allergy Clin Immunol 104: 983-989, 1999).
# [4] = tested on: liver metastasis of human colon cancer cell strain HT29 transplanted in the spleen; assay: Nude mouse models with liver metastasis from human colon cancer; type: in vivo, nude mice; settings: HT29 cells cultured 1 hour with 10 μM polyamide, splenic transplantation, 6 weeks
# Method: 5-week-old male nude mice (BALB/c Nude Mice CBy.Cg-Foxn1nu/J) (Jackson Laboratory) were purchased, maintained in a pathogen-free environment until 6 week olds, and used in the experiment. A human colon cancer cell strain HT29 was monolayer-cultured in a 100-cm^2 cell culture flask and treated with 0.05% trypsin and 0.02% EDTA solutions before reaching confluence. The cells were collected, centrifuged at 800 rpm for 3 minutes, then washed with PBS containing neither Ca^2+ nor Mg^2+, and cultured for 1 hour in a culture solution adjusted to a polyamide concentration of 10 μM or a polyamide-free culture solution. Then, a cell suspension having a concentration of 3×10^6 cells in 100 μl again was prepared using PBS. The thus-prepared 3 groups of the cells containing HMMP9NFκβ polyamide, containing mismatch polyamide and in polyamide-free PBS were separately administered to the nude mice (6 individuals/group). Longitudinal incision was made in the skin on the left side of the abdominal regions of the nude mice under anesthesia. After peritoneotomy to the spleen, 100 μl of the colon cancer cell suspension was transplanted to the splenic subcapsular region using a 29-G injection needle (FIG. 29A). The reliable splenic subcapsular transfer of the cell grafts was confirmed based on change in the color tone of the cell-transplanted site through the splenic capsule and the absence of bleeding or leakage of the suspension. After the transplantation, the mice were raised for 6 weeks and subjected to autopsy. The livers and the spleens were extracted, fixed in a 10% buffered formalin solution, then histologically stained with hematoxylin eosin, and subjected to microscopic observation. […] The liver metastatic foci are circled in the preparations.
SMILES,binding to target double-stranded DNA (mobility versus lanes containing only DS) [1],binding to target double-stranded DNA (mobility versus lanes containing only DS) [2],NF-κβ p65-NF-κβ binding region complex of the MMP-9 promoter in immunoprecipitation with anti-NF-κβ p65 antibodies [3],area of liver metastatic foci [4],number of liver metastatic foci [4],size of liver metastatic foci [4]
CC(=O)Nc1cn(C)c(C(=O)Nc2cc(C(=O)NCCC(=O)Nc3cn(C)c(C(=O)Nc4cc(C(=O)Nc5cc(C(=O)NCCCC(=O)Nc6cn(C)c(C(=O)Nc7cn(C)c(C(=O)Nc8cc(C(=O)NCCC(=O)Nc9cn(C)c(C(=O)Nc%10cc(C(=O)NCCC(=O)NCCCN(C)C)n(C)c%10)n9)n(C)c8)n7)n6)n(C)c5)n(C)c4)n3)n(C)c2)n1 [HMMP9AP1],lower mobility,–,–,–,–,–
CC(=O)Nc1cc(C(=O)Nc2cc(C(=O)NCCC(=O)Nc3cc(C(=O)Nc4cc(C(=O)NCCCC(=O)Nc5cn(C)c(C(=O)Nc6cn(C)c(C(=O)NCCC(=O)Nc7cc(C(=O)Nc8cc(C(=O)NCCC(=O)NCCCN(C)C)n(C)c8)n(C)c7)n6)n5)n(C)c4)n(C)c3)n(C)c2)n(C)c1 [HMMP9NFκβ],–,lower mobility,not detected,small,distinctly small,distinctly small

# Source: patent US20110046070A1, “GENE EXPRESSION INHIBITOR SELECTIVE FOR MATRIX METALLOPROTEINASE-9 GENE” (priority 2008, published 2011)
